Data published in ChEMBL document CHEMBL5030545, “Discovery of clinical candidate Sivopixant (S-600918): Lead optimization of dioxotriazine derivatives as selective P2X3 receptor antagonists” (Bioorg Med Chem Lett, 2021).

Experiments:
[1] = Oral bioavailability in rat at 1 mg/kg administered as cassette dose; assay type: ADME, organism-based; settings: in vivo
[2] = Protein binding in rat plasma assessed as unbound fraction at 1 mg/kg administered as cassette dose; assay type: ADME, organism-based
[3] = Free plasma concentration in rat plasma at 1 mg/kg administered as cassette dose; assay type: ADME, organism-based; settings: in vivo
P2X purinoceptor 3 = target: T1, P2X purinoceptor 3 (Homo sapiens, UniProt P56373); test: Antagonist activity at P2X3 receptor (unknown origin)
T1 sequence (P56373 whole entry): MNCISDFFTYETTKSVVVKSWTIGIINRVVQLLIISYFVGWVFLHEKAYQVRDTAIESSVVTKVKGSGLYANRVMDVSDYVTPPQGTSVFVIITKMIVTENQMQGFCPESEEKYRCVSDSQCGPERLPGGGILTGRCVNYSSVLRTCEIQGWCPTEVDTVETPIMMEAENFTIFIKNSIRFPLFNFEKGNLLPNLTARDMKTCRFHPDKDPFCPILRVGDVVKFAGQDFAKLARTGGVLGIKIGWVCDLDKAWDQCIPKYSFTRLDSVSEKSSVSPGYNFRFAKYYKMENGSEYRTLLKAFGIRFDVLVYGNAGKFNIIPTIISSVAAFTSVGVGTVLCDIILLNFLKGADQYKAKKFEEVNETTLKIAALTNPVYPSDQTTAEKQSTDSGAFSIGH

[4] = Ratio of plasma concentration in rat measured after 3 hrs to IC50 of P2X3 (unknown origin); assay type: ADME; settings: in vivo
[5] = Ratio of free plasma concentration in rat measured after 3 hrs to IC50 of P2X3 (unknown origin); assay type: ADME

SMILES | bioavailability [1] [%] | fraction unbound [2] | Cp(f) [3] [nM] | IC50 (P2X purinoceptor 3) [nM] | Ratio [4] | Ratio [5]
C[C@@H](Cn1c(=O)[nH]/c(=N\c2ccc(Oc3ccc(F)cn3)cc2)n(Cc2ccc(Cl)cc2)c1=O)C(=O)O | 82.4 | 0.011 | 473 | – | – | –
CC(C)Oc1ccc(/N=c2\[nH]c(=O)n(C[C@@H](O)CO)c(=O)n2Cc2ccc(Cl)cc2)cc1Cl | 63 | 0.001 | 1627 | 5.7 | 284.5 | 0.28
CC(C)Oc1ccc(Nc2nc(=O)n(CCO)c(=O)n2Cc2ccc(Cl)cc2)cc1Cl | 48.1 | 0.001 | 3095 | – | 204.9 | 0.2
C[C@@H](Cn1c(=O)[nH]/c(=N\c2ccc(Oc3nccs3)cc2)n(Cc2ccc(Cl)cc2)c1=O)C(=O)O | 41.4 | 0.006 | 319 | – | – | –
CC(C)Oc1ccc(/N=c2\[nH]c(=O)n(CC(C)(C)C(=O)O)c(=O)n2Cc2ccc(Cl)cc2)cc1Cl | 85.3 | 0.003 | 485 | 6.7 | 72.4 | 0.22
CC(C)COc1ccc(/N=c2\[nH]c(=O)n(C[C@H](C)C(=O)O)c(=O)n2Cc2ccc(Cl)cc2)cc1 | 48.7 | 0.025 | 253 | – | 11.5 | 0.29
Cc1ccc(Cn2c(=O)n(CC(C)(C)C(=O)O)c(=O)[nH]/c2=N\c2ccc(OC(C)C)c(Cl)c2)cc1 | 30.7 | 0.01 | 139 | 9.8 | 14.2 | 0.14
C[C@@H](Cn1c(=O)[nH]/c(=N\c2ccc(OCC3CC3)cc2)n(Cc2ccc(Cl)cc2)c1=O)C(=O)O | 45.6 | 0.021 | 643 | – | 37.6 | 0.79
C[C@@H](Cn1c(=O)[nH]/c(=N\c2ccc(Oc3cccnc3)cc2)n(Cc2ccc(Cl)cc2)c1=O)C(=O)O | – | – | – | 8.6 | – | –
CC(C)Oc1ccc(/N=c2\[nH]c(=O)n(C[C@H](O)CO)c(=O)n2Cc2ccc(Cl)cc2)cc1Cl | – | – | – | 10.4 | – | –
CC.C[C@@H](Cn1c(=O)[nH]/c(=N\c2ccc(Oc3cc(F)ccn3)cc2)n(Cc2ccc(Cl)cc2)c1=O)C(=O)O | 40.2 | 0.004 | 240 | 4.9 | 48.9 | 0.2
C[C@@H](Cn1c(=O)[nH]/c(=N\c2ccc(Oc3cnccn3)cc2)n(Cc2ccc(Cl)cc2)c1=O)C(=O)O | 56.5 | 0.018 | 330 | 5.8 | 56.2 | 1.02
C[C@@H](Cn1c(=O)[nH]/c(=N\c2ccc(OC3CCC3)cc2)n(Cc2ccc(Cl)cc2)c1=O)C(=O)O | 54.3 | 0.015 | 462 | – | 30.4 | 0.46
C[C@@H](Cn1c(=O)[nH]/c(=N\c2ccc(Oc3ccncc3)cc2)n(Cc2ccc(Cl)cc2)c1=O)C(=O)O | – | – | – | 5.2 | – | –
CC(C)Oc1ccc(/N=c2\[nH]c(=O)n(C[C@@H](C)C(=O)O)c(=O)n2Cc2ccc(Cl)cc2)cc1Cl | 108 | 0.002 | 1001 | – | 62.2 | 0.12
C[C@@H](Cn1c(=O)[nH]/c(=N\c2ccc(Oc3cccc(F)n3)cc2)n(Cc2ccc(Cl)cc2)c1=O)C(=O)O | 60 | 0.007 | 456 | – | – | –
C[C@@H](Cn1c(=O)[nH]/c(=N\c2ccc(Oc3cncc(F)c3)cc2)n(Cc2ccc(Cl)cc2)c1=O)C(=O)O | 74.3 | 0.02 | 529 | – | – | –
CC(C)Oc1ccc(/N=c2\[nH]c(=O)n(CCCC(=O)O)c(=O)n2Cc2ccc(Cl)cc2)cc1Cl | 43.2 | 0.002 | 1600 | – | 119.4 | 0.24
